Results as given in US7812022B2 (GlaxoSmithKline LLC, priority 2004, dated 2010).

Legend:
[1] = tested on: BT474 and HN5 tumor cell lines; assay: Methylene blue growth inhibition assay (cellular Method A); type: cell-based, Human; details: Homo sapiens, BT-474, 72 h, 3 days, read-out: Activity (Method): growth inhibition IC50 class
Description: Human breast (BT474) and head and neck (HN5) were cultured in low glucose DMEM (Life Technologies 12320-032) containing 10% fetal bovine serum (FBS). Human colon tumor cells (Colo205) were cultured in DMEM (Invitrogen, 10564) containing 10% FBS. The SV40 transformed human mammary epithelial cell line HB4a was transfected with either human H-ras cDNA (HB4a r4.2) or the human c-ErbB2 cDNA (HB4a c5.2). The HB4a clones were cultured in RPMI containing 10% FBS, insulin (5 g/mL), hydrocortisone (5 g/mL), supplemented with the selection agent hygromycin B (50 g/mL). All lines were grown in a humidified incubator at 37° C. in 95% air, 5% CO2. Cells were harvested using trypsin/EDTA, counted using a haemocytometer, and plated in 100 microliters of the appropriate media, at the following densities, in a 96-well tissue culture plate (Falcon 3075): BT474 10,000 cells/well, HN5 3,000 cells/well. The next day, compounds were diluted in DMEM containing […] gentamicin, at twice the final required concentration, from 10 mM stock solutions in DMSO. 100 microliters/well of these dilutions were added to the 100 microliters of media currently on the cell plates. Medium containing 0.6% DMSO was added to control wells. Compounds diluted in DMEM were added to all cell lines. The final concentration of DMSO in all wells was 0.3%. Cells were returned to the incubator (37° C., 10% CO2) for 3 days. Medium was then removed by aspiration. Cell biomass was estimated by staining cells with 90 microliters per well methylene blue (Sigma M9140, 0.5% in 1:1 ethanol:water), and incubation at rt for at least 30 minutes. Stain was removed, and the plates rinsed by immersion in deionized water and air-dried. To release stain from the cells 100 microliters of solubilization solution was added (1% N-lauroyl sarcosine, Sodium salt, Sigma L5125, in PBS), and plates were shaken gently for about 30 minutes. Optical density at 620 nm was measured on a microplate reader. Percent inhibition of cell growth was calculated relative to vehicle treated control wells. Concentration of compound that inhibits 50% of control cell growth (IC50) was interpolated using nonlinear regression (Levenberg-Marquardt) and the equation, y=Vmax*(1−(x/(K+x)))+Y2, where “K” was equal to the IC50. Method B: Celltiter Glo® Growth Inhibition Assays

ErbB2 or EGFR = molecular target: T1, ErbB2 or EGFR; assay: ErbB family substrate phosphorylation enzyme assay (HTRF), Method A or Method B; type: biochemical
T1 construct: enzymes purified from a baculovirus expression system; Reagent production was conducted essentially as described in Brignola, P. S., et al, (2002) J. Biol. Chem. 277(2): 1576-1585
Description: Compounds of the present invention were tested for EGFR, ErbB-2, and ErbB-4 protein tyrosine kinase inhibitory activity in substrate phosphorylation assays using enzymes purified from a baculovirus expression system. Reagent production was conducted essentially as described in Brignola, P. S., et al, (2002) J. Biol. Chem. 277(2): 1576-1585.
The method measures the ability of the isolated enzyme to catalyse the transfer of the gamma-phosphate from ATP onto the tyrosine residue of a biotinylated synthetic peptide referenced “Peptide C” in Brignola, P. S., et al, (2002) J. Biol. Chem. 277(2):1576-1585. The extent of tyrosine phosphorylation was measured using an anti-phosphotyrosine antibody, and quantified by homogenous time-resolved fluorescence (HTRF).
Reactions were performed in black 384-well polystyrene flat-bottom plates in a final volume of 20 ul. Assays were performed by adding 10 μl of each of the following solutions, substrate Mix and enzyme mix: The Substrate mix contained 100 mM 3-[N-morpholino]propanesulfonic acid (MOPS) (pH 7.5), 2 mM MnCl2, 20 μM ATP, 0.01% Tween-20, 0.1 mg/mL (BSA), 0.8 uM peptide substrate, and 1 mM dithiothreitol. The enzyme mix contained 100 mM MOPS (pH7.5); 0.01% Tween-20; 0.1 mg/mL BSA, and either 0.8 nM EGFR, 10 nM ErbB2, or 1 nM ErbB4
During the course of these studies, two separate methods have been used to measure the potency of compounds. In Method A, the substrate mix was added to the compound plates first, then the reaction was started by adding the enzyme mix. In Method B, the enzyme mix was added to the compound plates and the plates were incubated at 20° C. for 1 hour. The reactions were then started by adding the substrate mix.
After initiating the reaction with either method describe above, the reactions were allowed to proceed for 90 minutes at 20° C. The reactions were then terminated by the addition of 20 μl 100 mM EDTA to each well. 40 μl/well of HTRF detection mix were added to the assay plates. The final concentrations of the detection reagents were: 100 mM HEPES (pH7.5), 0.1 mg/mL BSA, 15 nM streptavidin-labeled allophycocyanin (PerkinElmer), and 1 nM europium-labeled anti-phosphotyrosine antibody (PerkinElmer). Assay plates were left unsealed and were counted in a Wallac Multilabel Counter 1420 (PerkinElmer).
Compounds under analysis were dissolved in Me2SO to 1.0 mM and serially diluted 1 to 3 with Me2SO through twelve dilutions. 1 μl of each concentration was transferred to the corresponding well of an assay plate. This creates a final compound concentration range from 0.00027 to 47.6 μM.
The data for dose responses were plotted as % Inhibition calculated with the data reduction formula 100*(1−(U1−C2)/(C1−C2)) versus concentration of compound where U is the unknown value, C1 is the average control value obtained for 4.76% DMSO, and C2 is the average control value obtained for 0.035 M EDTA. Data were fitted with a curve described by: y=((Vmax*x)/(K+x))+Y^2 where Vmax is the upper asymptote, Y2 is the Y intercept, and K is the IC50. The results for each compound were recorded as pIC50s, calculated as follows: pIC50=−Log 10(K)

[2] = Method B: enzyme mix pre-incubated with compound 1 hour at 20° C., started with substrate mix
[3] = Method A: substrate mix added first, reaction started with enzyme mix

| Compound | IC50 [1] | Activity (Method): pIC50 class against ErbB2 or EGFR (ErbB2 or EGFR; [2]) | Activity (Method): pIC50 class against ErbB2 or EGFR (ErbB2 or EGFR; [3]) |
| --- | --- | --- | --- |
| Cc1cc(C(=O)Nc2cccc(-c3nn4ccccc4c3-c3ccnc(Nc4cccc(F)c4)n3)c2)n(C)n1 [Example 23, N-[3-(3-{2-[(3-Fluorophenyl)amino]-4-pyrimidinyl}pyrazolo[1,5-a]pyridin-2-yl)phenyl]-1,3-dimethyl-1H-pyrazole-5-carboxamide] | > 1 µM | ++ (B) (at least one pIC50 measurement greater than 6 against either ErbB2 or EGFR but no measurement greater than pIC50 of 7) |  |
| O=C(Nc1cccc(-c2nn3ccccc3c2-c2ccnc(Nc3cccc(F)c3)n2)c1)c1cnc2ccccc2n1 [Example 24, N-[3-(3-{2-[(3-Fluorophenyl)amino]-4-pyrimidinyl}pyrazolo[1,5-a]pyridin-2-yl)phenyl]-2-quinoxalinecarboxamide] | > 1 µM | + (B) (no pIC50 measurement greater than 6 against either ErbB2 or EGFR) |  |
| Cn1nnc2cc(C(=O)Nc3cccc(-c4nn5ccccc5c4-c4ccnc(Nc5cccc(F)c5)n4)c3)ccc21 [Example 26, N-[3-(3-{2-[(3-fluorophenyl)amino]-4-pyrimidinyl}pyrazolo[1,5-a]pyridin-2-yl)phenyl]-1-methyl-1H-1,2,3-benzotriazole-5-carboxamide] | > 1 µM | ++ (B) (at least one pIC50 measurement greater than 6 against either ErbB2 or EGFR but no measurement greater than pIC50 of 7) |  |
| O=C(Nc1cccc(-c2nn3ccccc3c2-c2ccnc(Nc3ccc(N4CCOCC4)cc3)n2)c1)c1c(F)cccc1F [Example 27, 2,6-Difluoro-N-{3-[3-(2-{[4-(4-morpholinyl)phenyl]amino}-4-pyrimidinyl)pyrazolo[1,5-a]pyridin-2-yl]phenyl}benzamide] | < 0.1 µM | ++ (B) (at least one pIC50 measurement greater than 6 against either ErbB2 or EGFR but no measurement greater than pIC50 of 7) |  |
| N#Cc1cccc(Nc2nccc(-c3c(-c4cccc(NC(=O)c5c(F)cccc5F)c4)nn4ccccc34)n2)c1 [Example 30, N-[3-(3-{2-[(3-cyanophenyl)amino]-4-pyrimidinyl}pyrazolo[1,5-a]pyridin-2-yl)phenyl]-2,6-difluorobenzamide] | < 0.1 µM |  | +++ (A) (at least one pIC50 measurement of greater than 7 against either ErbB2 or EGFR) |
| NS(=O)(=O)c1ccc(Nc2nccc(-c3c(-c4cccc(NC(=O)c5c(F)cccc5F)c4)nn4ccccc34)n2)cc1 [Example 32, N-{3-[3-(2-{[4-(aminosulfonyl)phenyl]amino}-4-pyrimidinyl)pyrazolo[1,5-a]pyridin-2-yl]phenyl}-2,6-difluorobenzamide] | < 0.1 µM | +++ (B) (at least one pIC50 measurement of greater than 7 against either ErbB2 or EGFR) |  |
| O=C(Nc1cccc(-c2nn3ccccc3c2-c2ccnc(Nc3cccc(C(F)(F)F)c3)n2)c1)c1c(F)cccc1F [Example 33, 2,6-Difluoro-N-{3-[3-(2-{[3-(trifluoromethyl)phenyl]-amino}-4-pyrimidinyl)pyrazolo[1,5-a]pyridin-2-yl]phenyl}benzamide] | 0.1 to 1 µM |  | +++ (A) (at least one pIC50 measurement of greater than 7 against either ErbB2 or EGFR) |
| O=C(Nc1cccc(-c2nn3ccccc3c2-c2ccnc(Nc3ccccc3)n2)c1)c1c(F)cccc1F [Example 34, 2,6-Difluoro-N-(3-{3-[2-(phenylamino)-4-pyrimidinyl]pyrazolo[1,5-a]pyridin-2-yl}phenyl)benzamide] | < 0.1 µM | +++ (B) (at least one pIC50 measurement of greater than 7 against either ErbB2 or EGFR) |  |
| O=C(Nc1cccc(-c2nn3ccccc3c2-c2ccnc(Nc3cccc(-c4cnco4)c3)n2)c1)c1c(F)cccc1F [Example 35, 2,6-Difluoro-N-{3-[3-(2-{[3-(1,3-oxazol-5-yl)phenyl]amino}-4-pyrimidinyl)pyrazolo[1,5-a]pyridin-2-yl]phenyl}benzamide] | < 0.1 µM | +++ (B) (at least one pIC50 measurement of greater than 7 against either ErbB2 or EGFR) |  |
| CC(=O)Nc1cccc(Nc2nccc(-c3c(-c4cccc(NC(=O)c5c(F)cccc5F)c4)nn4ccccc34)n2)c1 [Example 36, N-{3-[3-(2-{[3-(Acetylamino)phenyl]amino}-4-pyrimidinyl)pyrazolo[1,5-a]pyridin-2-yl]phenyl}-2,6-difluorobenzamide] | < 0.1 µM |  | +++ (A) (at least one pIC50 measurement of greater than 7 against either ErbB2 or EGFR) |
| O=C(Nc1cccc(-c2nn3ccccc3c2-c2ccnc(Nc3cccc(F)c3)n2)c1)c1c(F)cccc1Cl [Example 37, 2-Chloro-6-fluoro-N-[3-(3-{2-[(3-fluorophenyl)amino]-4-pyrimidinyl}pyrazolo[1,5-a]pyridin-2-yl)phenyl]benzamide] | < 0.1 µM | +++ (B) (at least one pIC50 measurement of greater than 7 against either ErbB2 or EGFR) |  |
| Cc1noc(C)c1C(=O)Nc1cccc(-c2nn3ccccc3c2-c2ccnc(Nc3cccc(F)c3)n2)c1 [Example 38, N-[3-(3-{2-[(3-fluorophenyl)amino]-4-pyrimidinyl}-pyrazolo[1,5-a]pyridin-2-yl)phenyl]-3,5-dimethyl-4-isoxazolecarboxamide] | 0.1 to 1 µM | +++ (B) (at least one pIC50 measurement of greater than 7 against either ErbB2 or EGFR) |  |
| O=C(Nc1cccc(-c2nn3ccccc3c2-c2ccnc(Nc3cccc(F)c3)n2)c1)c1cc(F)ccc1F [Example 39, 2,5-Difluoro-N-[3-(3-{2-[(3-fluorophenyl)amino]-4-pyrimidinyl}pyrazolo[1,5-a]pyridin-2-yl)phenyl]benzamide] | 0.1 to 1 µM | +++ (B) (at least one pIC50 measurement of greater than 7 against either ErbB2 or EGFR) |  |
| N#Cc1cccc(Nc2nccc(-c3c(-c4cccc(NC(=O)c5cc(F)ccc5F)c4)nn4ccccc34)n2)c1 [Example 48, N-[3-(3-{2-[(3-Cyanophenyl)amino]-4-pyrimidinyl}pyrazolo[1,5-a]pyridin-2-yl)phenyl]-2,5-difluorobenzamide] | < 0.1 µM |  | +++ (A) (at least one pIC50 measurement of greater than 7 against either ErbB2 or EGFR) |
